Experimental data from ChEMBL document CHEMBL1201862, “PubChem BioAssay data set” (2004).
Each block holds one compound with its values, some of them ahead of it. Activity calls are given as the source filed them.

Columns and labels:
[1] = molecular target: T1, E3 ubiquitin-protein ligase XIAP (Homo sapiens, UniProt P98170); test: small molecules displacing peptide from XIAP – biochemical, IAP family, fluorescence polarization (AID 1018); format: functional
[2] = molecular target: T1, E3 ubiquitin-protein ligase XIAP; test: Counter Screen using XIAP-Bir3 for Chemical Antagonists of Bir1/2 domains of IAP-family anti-apoptotic proteins. [Related pubchem assays (depositor defined):AID1018, AID1449, AID1514, AID1638, AID1749, AID1750, AID488957, AID488963]
[3] = viability of uninfected HEp-2 cells – cell-based, HTS, cytotoxicity control for RSV inhibitor project, dose response (AID 2410); format: functional; conditions: human respiratory syncytial virus
[4] = molecular target: T2, Short transient receptor potential channel 4 (Mus musculus, UniProt Q9QUQ5); test: calcium entry via TRPC4 opening agents – cell-based, HEK293 TRPC4/mu-opioid, Fluo-4 calcium, dose response (AID 434937); format: functional
T2 sequence (Q9QUQ5 whole entry): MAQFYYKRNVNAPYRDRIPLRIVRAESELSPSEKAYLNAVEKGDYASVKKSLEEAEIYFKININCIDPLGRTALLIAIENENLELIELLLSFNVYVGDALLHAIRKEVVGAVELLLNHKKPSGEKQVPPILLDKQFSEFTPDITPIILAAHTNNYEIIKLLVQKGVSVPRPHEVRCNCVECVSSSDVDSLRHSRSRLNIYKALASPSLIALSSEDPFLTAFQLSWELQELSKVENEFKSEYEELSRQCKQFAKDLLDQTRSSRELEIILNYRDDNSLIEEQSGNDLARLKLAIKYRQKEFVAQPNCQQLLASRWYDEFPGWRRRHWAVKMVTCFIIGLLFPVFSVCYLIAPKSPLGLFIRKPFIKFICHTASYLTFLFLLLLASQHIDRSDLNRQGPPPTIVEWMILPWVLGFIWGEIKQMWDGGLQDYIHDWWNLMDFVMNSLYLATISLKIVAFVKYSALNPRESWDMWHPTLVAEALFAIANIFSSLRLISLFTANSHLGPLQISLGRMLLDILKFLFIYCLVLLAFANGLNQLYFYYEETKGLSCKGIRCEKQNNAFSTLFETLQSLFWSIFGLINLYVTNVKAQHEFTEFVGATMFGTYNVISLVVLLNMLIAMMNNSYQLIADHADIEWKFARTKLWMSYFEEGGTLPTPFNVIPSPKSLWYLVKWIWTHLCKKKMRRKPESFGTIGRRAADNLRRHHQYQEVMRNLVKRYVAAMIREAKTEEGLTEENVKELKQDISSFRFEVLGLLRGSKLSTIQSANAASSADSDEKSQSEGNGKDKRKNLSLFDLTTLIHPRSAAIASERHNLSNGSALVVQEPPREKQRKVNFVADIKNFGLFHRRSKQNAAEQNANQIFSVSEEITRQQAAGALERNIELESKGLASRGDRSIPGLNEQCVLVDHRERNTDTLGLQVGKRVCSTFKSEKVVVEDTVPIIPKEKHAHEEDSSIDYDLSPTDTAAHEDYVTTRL

[5] = molecular target: T3, Type-1 angiotensin II receptor (Homo sapiens, UniProt P30556); test: agonist activity at AGTR1 – cell-based, uHTS hits, selectivity assay for APJ receptor agonist project, dose response (AID 488865); format: functional;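 also: beta-arrestin recruitment to AT1 measured by enzyme fragment complementation luminescence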
T3 sequence (P30556 whole entry): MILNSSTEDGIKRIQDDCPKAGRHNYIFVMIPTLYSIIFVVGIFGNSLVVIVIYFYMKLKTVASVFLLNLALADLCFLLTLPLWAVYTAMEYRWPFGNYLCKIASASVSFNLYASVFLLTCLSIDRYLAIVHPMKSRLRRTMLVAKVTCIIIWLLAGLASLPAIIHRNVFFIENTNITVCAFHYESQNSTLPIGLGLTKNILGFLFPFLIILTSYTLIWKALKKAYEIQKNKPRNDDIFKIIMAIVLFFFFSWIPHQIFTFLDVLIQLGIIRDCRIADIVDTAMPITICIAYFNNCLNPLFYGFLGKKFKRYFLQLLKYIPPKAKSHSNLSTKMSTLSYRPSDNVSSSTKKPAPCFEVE

[6] = molecular target: Delta-type opioid receptor (Homo sapiens, UniProt P41143); test: Counterscreen for agonists of heterodimerization of the mu 1 (OPRM1) and delta 1 (OPRD1) opioid receptors: Luminescence-based cell-based high throughput dose response assay to identify agonists of OPRD1 homodimerization. [Related pubchem assays (depositor defined):AID504326, AID504355, AID504692, AID504904, AID504905]; format: functional
Delta-type opioid receptor, sequence (P41143 whole entry): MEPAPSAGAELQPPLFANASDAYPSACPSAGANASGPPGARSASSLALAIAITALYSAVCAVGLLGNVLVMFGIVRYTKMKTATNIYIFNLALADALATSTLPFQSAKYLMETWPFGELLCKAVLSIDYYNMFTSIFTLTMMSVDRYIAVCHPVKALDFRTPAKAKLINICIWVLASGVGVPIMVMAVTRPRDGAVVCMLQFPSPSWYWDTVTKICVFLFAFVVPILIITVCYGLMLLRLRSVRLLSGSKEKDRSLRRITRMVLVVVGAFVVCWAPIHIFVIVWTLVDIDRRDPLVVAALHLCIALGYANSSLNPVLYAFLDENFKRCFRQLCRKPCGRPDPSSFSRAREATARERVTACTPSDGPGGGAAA

[7] = molecular target: T4, Apoptotic protease-activating factor 1 (Homo sapiens, UniProt O14727); format: functional
T4 sequence (O14727 whole entry): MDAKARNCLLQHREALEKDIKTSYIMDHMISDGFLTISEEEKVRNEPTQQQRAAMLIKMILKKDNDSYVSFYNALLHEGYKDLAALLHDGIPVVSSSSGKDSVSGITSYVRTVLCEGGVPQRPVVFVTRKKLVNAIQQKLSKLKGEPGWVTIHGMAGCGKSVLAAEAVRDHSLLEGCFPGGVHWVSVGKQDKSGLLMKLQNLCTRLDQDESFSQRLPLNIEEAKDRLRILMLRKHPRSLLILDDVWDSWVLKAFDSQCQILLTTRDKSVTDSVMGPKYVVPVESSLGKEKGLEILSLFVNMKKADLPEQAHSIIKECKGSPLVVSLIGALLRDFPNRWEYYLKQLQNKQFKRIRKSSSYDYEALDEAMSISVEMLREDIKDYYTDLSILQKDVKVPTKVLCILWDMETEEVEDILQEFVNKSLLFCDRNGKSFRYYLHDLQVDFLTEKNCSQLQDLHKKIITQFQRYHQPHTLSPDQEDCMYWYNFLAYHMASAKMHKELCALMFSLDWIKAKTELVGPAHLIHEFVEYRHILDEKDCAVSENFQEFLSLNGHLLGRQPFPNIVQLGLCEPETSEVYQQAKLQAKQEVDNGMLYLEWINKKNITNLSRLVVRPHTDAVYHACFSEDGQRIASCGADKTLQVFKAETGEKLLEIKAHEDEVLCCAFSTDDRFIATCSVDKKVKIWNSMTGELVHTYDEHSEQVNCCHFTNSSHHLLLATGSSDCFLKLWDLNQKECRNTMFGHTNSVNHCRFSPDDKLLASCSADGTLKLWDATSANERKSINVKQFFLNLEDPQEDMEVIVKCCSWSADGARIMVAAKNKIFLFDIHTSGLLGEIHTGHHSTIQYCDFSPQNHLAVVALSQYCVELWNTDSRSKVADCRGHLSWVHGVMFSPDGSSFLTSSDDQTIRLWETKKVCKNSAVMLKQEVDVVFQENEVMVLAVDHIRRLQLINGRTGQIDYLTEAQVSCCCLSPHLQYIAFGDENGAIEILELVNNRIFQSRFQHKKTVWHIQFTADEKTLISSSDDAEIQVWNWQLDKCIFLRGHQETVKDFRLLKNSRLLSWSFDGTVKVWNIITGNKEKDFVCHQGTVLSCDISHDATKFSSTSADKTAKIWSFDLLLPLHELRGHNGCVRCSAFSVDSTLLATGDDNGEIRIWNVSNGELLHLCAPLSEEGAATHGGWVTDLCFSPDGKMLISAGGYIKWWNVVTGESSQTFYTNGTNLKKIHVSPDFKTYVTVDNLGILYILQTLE

[8] = molecular target: 5-hydroxytryptamine receptor 5A (Homo sapiens, UniProt P47898); test: Counterscreen for agonists of OPRM1-OPRD1 heterodimerization: luminescence-based cell-based high throughput dose response assay to identify agonists of 5-hydroxytryptamine (serotonin) 5A receptor (HTR5A). [Related pubchem assays (depositor defined):AID504326, AID504355, AID504692, AID504904, AID504905]; format: functional
5-hydroxytryptamine receptor 5A, sequence (P47898 whole entry): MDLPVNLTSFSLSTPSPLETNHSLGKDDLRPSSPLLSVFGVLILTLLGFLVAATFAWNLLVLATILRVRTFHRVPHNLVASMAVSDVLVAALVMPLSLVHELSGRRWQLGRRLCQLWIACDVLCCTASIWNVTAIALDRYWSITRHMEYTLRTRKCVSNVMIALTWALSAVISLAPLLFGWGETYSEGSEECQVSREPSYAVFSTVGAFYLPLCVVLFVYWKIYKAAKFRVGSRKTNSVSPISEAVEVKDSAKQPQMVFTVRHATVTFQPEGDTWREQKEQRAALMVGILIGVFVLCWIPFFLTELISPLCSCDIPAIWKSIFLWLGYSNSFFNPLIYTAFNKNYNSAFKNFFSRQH

Mu-type opioid receptor = Mu-type opioid receptor (Homo sapiens, UniProt P35372); test: Counterscreen for agonists of heterodimerization of the mu 1 (OPRM1) and delta 1 (OPRD1) opioid receptors: Luminescence-based cell-based high throughput dose response assay to identify agonists of OPRM1 homodimerization.; format: functional;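 also: U2OS cells expressing OPRM1 and beta-arrestin as split beta-galactosidase partners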
Mu-type opioid receptor, sequence (P35372 whole entry): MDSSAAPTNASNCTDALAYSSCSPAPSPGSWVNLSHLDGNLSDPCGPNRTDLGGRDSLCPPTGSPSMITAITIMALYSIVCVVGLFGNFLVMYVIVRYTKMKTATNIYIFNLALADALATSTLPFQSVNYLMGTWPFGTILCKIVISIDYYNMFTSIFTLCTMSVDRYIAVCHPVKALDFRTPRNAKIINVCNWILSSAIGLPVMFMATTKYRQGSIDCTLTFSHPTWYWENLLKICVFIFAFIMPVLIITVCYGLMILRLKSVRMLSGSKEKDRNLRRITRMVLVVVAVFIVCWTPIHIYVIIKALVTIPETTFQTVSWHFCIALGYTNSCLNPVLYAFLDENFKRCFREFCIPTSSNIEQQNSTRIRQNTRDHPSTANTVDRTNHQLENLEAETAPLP

[9] = molecular target: T5, Ubiquitin-conjugating enzyme E2 N (Homo sapiens, UniProt P61088); format: functional;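 also: Dose-response confirmation in a TR-FRET assay detecting UBC13-driven polyubiquitin chain formation, inhibition measured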
T5 sequence (P61088 whole entry): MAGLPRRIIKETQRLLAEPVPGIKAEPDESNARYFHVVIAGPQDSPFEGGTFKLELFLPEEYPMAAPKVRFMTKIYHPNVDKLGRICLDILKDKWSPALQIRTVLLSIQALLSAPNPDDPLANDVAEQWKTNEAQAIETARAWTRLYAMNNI

[10] = molecular target: T6, Polyadenylate-binding protein 1 (Homo sapiens, UniProt P11940); test: MLLE domain peptide-binding blockers, IC50 – biochemical, fluorescence polarization, FITC-PAM2 peptide, dose response (AID 602259); format: functional; conditions: read-out: IC50_Mean
T6 sequence (P11940 whole entry, the tested form may be a part): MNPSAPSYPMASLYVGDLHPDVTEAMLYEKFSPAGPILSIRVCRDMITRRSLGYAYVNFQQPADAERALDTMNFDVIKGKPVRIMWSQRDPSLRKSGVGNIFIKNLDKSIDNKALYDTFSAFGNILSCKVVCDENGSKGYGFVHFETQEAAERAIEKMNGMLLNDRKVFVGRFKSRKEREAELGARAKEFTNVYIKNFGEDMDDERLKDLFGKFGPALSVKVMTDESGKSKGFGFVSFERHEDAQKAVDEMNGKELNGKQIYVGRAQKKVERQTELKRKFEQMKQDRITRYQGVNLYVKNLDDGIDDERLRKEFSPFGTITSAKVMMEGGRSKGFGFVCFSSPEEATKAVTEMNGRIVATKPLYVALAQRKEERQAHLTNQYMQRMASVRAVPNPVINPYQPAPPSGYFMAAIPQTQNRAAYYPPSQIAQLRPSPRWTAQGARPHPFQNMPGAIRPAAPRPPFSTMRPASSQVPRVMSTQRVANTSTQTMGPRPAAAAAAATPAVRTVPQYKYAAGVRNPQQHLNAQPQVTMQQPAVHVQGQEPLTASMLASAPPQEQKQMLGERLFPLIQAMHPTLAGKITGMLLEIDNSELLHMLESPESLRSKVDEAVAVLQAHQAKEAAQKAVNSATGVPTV

[11] = molecular target: T7, Runt-related transcription factor 1/Core-binding factor subunit beta (Homo sapiens, UniProt Q01196+Q13951); test: disruptors of Runt domain/CBFb-SMMHC interaction – biochemical, FRET, Cerulean-Runt, Venus-CBFb-SMMHC, uHTS, […] (AID 1434); format: protein assay
T7 sequence (Q01196 whole entry, the tested form may be a part): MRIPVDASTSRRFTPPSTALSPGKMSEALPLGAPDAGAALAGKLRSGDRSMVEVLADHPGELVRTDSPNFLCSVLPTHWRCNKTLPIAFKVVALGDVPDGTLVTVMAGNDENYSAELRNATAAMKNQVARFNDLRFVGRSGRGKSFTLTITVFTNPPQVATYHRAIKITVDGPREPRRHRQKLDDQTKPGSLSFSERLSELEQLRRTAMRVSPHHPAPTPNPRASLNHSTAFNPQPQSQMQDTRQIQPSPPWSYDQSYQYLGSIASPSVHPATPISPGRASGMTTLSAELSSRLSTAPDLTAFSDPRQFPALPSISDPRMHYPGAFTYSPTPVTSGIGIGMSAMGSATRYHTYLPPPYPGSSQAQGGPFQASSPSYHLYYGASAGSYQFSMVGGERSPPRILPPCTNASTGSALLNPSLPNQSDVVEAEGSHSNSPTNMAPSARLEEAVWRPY
T7 sequence (Q13951 whole entry, the tested form may be a part): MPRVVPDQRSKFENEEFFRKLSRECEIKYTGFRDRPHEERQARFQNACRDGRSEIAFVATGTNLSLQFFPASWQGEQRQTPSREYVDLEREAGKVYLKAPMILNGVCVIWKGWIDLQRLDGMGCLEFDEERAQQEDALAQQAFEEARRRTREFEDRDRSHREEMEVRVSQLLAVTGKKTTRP

[12] = molecular target: T6, Polyadenylate-binding protein 1; test: MLLE binding blockers, Cy5 peptide tracer – biochemical, fluorescence polarization, Cy5-PAM2 peptide, secondary, miRNA deadenylation inhibitor project, dose response (AID 602260); format: functional; conditions: read-out: IC50_Mean
[13] = molecular target: T7, Runt-related transcription factor 1/Core-binding factor subunit beta; test: Runt domain/CBFb-SMMHC interaction disruptors – biochemical, TR-FRET (AID 1438); format: protein assay
[14] = inhibition of ADAM10 peptide cleavage – biochemical, FRET peptide substrate, recombinant human ADAM10, selectivity assay for ADAM17 exosite inhibitor project, dose response (AID 743259);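 also: ADAM10 enzyme cleaving a FRET peptide substrate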
[15] = molecular target: DNA damage-inducible transcript 3 protein (Mus musculus, UniProt P35639); format: functional, Cricetulus griseus
DNA damage-inducible transcript 3 protein, sequence (P35639 whole entry, the tested form may be a part): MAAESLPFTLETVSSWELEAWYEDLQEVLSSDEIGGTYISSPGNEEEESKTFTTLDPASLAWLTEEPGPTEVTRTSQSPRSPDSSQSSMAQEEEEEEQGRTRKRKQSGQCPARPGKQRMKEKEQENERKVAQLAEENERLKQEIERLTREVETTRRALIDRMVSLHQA

[16] = molecular target: Disintegrin and metalloproteinase domain-containing protein 17 (Homo sapiens, UniProt P78536); test: exosite inhibitors of ADAM17, dose response, biochemical (AID 743260)
Disintegrin and metalloproteinase domain-containing protein 17, sequence (P78536 whole entry, the tested form may be a part): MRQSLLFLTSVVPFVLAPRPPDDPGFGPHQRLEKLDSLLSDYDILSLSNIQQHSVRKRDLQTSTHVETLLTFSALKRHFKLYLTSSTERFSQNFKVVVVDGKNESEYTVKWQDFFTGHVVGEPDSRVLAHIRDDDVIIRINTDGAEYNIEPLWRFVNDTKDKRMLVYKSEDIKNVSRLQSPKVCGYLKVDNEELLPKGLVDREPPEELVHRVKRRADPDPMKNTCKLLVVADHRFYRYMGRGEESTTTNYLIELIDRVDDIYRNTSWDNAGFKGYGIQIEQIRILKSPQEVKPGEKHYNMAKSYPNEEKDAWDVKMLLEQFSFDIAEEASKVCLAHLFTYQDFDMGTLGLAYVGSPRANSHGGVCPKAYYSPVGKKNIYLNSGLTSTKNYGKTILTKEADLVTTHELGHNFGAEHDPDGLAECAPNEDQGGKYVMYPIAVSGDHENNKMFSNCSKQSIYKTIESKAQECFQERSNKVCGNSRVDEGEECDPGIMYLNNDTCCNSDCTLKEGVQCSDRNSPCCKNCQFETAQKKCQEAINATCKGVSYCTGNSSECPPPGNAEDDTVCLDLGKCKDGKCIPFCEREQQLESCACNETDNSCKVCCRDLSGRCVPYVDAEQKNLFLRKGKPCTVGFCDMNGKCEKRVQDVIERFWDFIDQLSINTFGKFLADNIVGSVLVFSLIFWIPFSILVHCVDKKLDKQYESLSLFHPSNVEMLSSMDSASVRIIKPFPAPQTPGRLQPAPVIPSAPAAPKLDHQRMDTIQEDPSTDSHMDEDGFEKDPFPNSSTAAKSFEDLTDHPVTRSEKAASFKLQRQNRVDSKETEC

T1 sequence (P98170 whole entry): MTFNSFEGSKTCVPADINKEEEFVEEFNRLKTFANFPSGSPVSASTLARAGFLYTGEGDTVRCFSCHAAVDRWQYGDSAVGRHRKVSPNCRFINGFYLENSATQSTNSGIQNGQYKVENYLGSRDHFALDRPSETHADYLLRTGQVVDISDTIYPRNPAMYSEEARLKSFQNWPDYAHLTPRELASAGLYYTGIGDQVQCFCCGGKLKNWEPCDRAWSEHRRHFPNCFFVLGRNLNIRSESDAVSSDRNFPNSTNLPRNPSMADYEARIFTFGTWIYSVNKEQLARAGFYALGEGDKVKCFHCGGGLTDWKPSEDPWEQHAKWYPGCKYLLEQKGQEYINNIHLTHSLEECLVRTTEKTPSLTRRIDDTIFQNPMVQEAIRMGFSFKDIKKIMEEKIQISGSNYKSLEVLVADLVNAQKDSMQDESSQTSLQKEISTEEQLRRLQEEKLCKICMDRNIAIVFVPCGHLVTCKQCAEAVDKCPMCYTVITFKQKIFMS

- IC50 [1]: > 100 µM (not active)
- IC50 [2]: > 100 µM (inactive)
Compound: CSc1nc(N)nc(SCC(=O)Nc2cccc(F)c2)c1C#N

- EC50 [4]: 0.596 µM (active)
- EC50 [5]: > 100 µM (inactive)
- EC50 [6]: > 92.5 µM (inactive)
- IC50 [7]: 47.9 µM (active)
- EC50 [8]: > 92.5 µM (inactive)
- EC50 (Mu-type opioid receptor): 3.28 µM (active)
- IC50 [9]: > 20 µM (inactive)
Compound: CN(C)CCCN(C(=O)c1ccc(S(=O)(=O)N2CCc3ccccc3C2)cc1)c1nc2ccc(F)cc2s1
- CC50 [3]: 31.1 µM (active)

Compound: N#Cc1cc2c(=O)n3ccccc3nc2n(Cc2ccco2)/c1=N/C(=O)c1ccco1
- IC50 [10]: > 66 µM (inactive)
- IC50 [11]: 1.67 µM (active)
- IC50 [12]: > 66 µM (inactive)
- IC50 [13]: 56.1 µM (inactive)

- IC50 [16]: > 69.5 µM (inactive)
Compound: Sc1nnc(C2CCCCC2)n1/N=C/C=C/c1ccccc1
- IC50 [14]: 13.7 µM (inactive)
- Absolute IC50 (CHOP) [15]: 10 µM
